Tests used:
[1] = oral administration; cited from earlier work
[2] = Bioequivalence test: blood plasma phenylbutazone levels (HPLC) after horses eat the product mixed in grain; assay type: in vivo, horse; parameters: unit not given here; conditions: 4 g phenylbutazone in grain, oral, average of five horses
Experimental: The above product mixture was tested for bioequivalency as follows. Three healthy mature geldings and two non-pregnant mares aged 3-15 years with similar weights were chosen for a bioequivalence test. The bioequivalence test was designed to determine the difference in blood plasma absorption between commercially available phenylbutazone tablets and the inventive product mixture described above. […] At five o'clock p.m. the evening before the test, each horse was fed a normal meal consisting of 1 gallon of grain with fourteen percent protein, and ten pounds of alfalfa hay. During the test each horse was stabled separately and had access to drinking water at all times. On test day, each horse was fasted until administration of the test product, and then given a normal meal consisting of one gallon of grain with fourteen percent protein and ten pounds of alfalfa hay five hours post dosing and at twelve and one-half hours after administration. The morning of the test, 4.60 grams of the product from example one containing a total of four grams of phenylbutazone, was added to one half gallon of grain with fourteen percent protein by lightly stifling. Each horse was given 15 minutes to consume the grain. […] Each of the five horses followed this procedure. Two hours following administration a 4.5 cc blood sample was taken from each of the five horses. Thereafter, additional 4.5 cc blood samples were taken at half-hour intervals until the sixth hour. After the sixth hour 4.5 cc blood samples were taken hourly until the eighth hour. […] The blood samples were taken with a 20 gauge one inch needle and promptly put into a green CST Lithium Heparin tubes and cooled in ice water at 36 degrees F. When each sample was collected, the blood sample was spun to separate the blood plasma from each sample. The separated blood plasma was placed in a freezer for twenty-four hours at 20 below zero. After twenty-four hours, the blood plasma was thawed to room temperature and phenylbutazone levels were quantified for each sample by a validated HPLC method. Two weeks later after completing a wash out period, the same three healthy mature geldings and two non-pregnant mares aged 3-15 years with similar weights were used for a cross over bioequivalence test. This bioequivalence test was to determine the concentration levels in blood plasma absorption of commercially available phenylbutazone tablets. […] At five o'clock p.m. the evening before the test, each horse was fed a normal meal consisting of 1 gallon of grain with fourteen percent protein, and ten pounds of alfalfa hay. During the test each horse was stabled separately and had access to drinking water at all times. On test day, each horse was fasted until administration of the test product (4 grams of crushed active ingredient phenylbutazone in tablets), and then given a normal meal consisting of one gallon of grain with fourteen percent protein and ten pounds of alfalfa hay five hours post dosing, and at twelve and one-half hours after administration. The morning of the test, four 1 gram tablets of the commercially available phenylbutazone were crushed in to a fine powder, and were added to one half gallon of grain with fourteen percent protein by lightly stifling for each horse. Each horse was given 15 minutes to consume the grain. […] Each of the five horses followed this procedure. Two hours following administration a 4.5 cc blood sample was taken from each of the five horses. Thereafter, additional 4.5 cc blood samples were taken at half-hour intervals until the sixth hour. After the sixth hour 4.5 cc blood samples were taken hourly until the eighth hour. […] The blood samples were taken with a 20 gauge one inch needle and promptly put into a green CST Lithium Heparin tubes and cooled in ice water at 36 degrees F. When each sample was collected, the blood sample was spun to separate the blood plasma from each sample. The separated blood plasma was placed in a freezer for twenty-four hours at 20 below zero. […]

blood plasma concentration of phenylbutazone ([2]; 2 hours after eating): 5.0
blood plasma concentration of phenylbutazone ([2]; 3 hours after eating): 6.0
blood plasma concentration of phenylbutazone ([2]; 4 hours after eating): 8.5
blood plasma concentration of phenylbutazone ([2]; 5 hours after eating): 10.1
blood plasma concentration of phenylbutazone ([2]; 6 hours after eating): 12.0
blood plasma concentration of phenylbutazone ([2]; 7 hours after eating): 13.0
blood plasma concentration of phenylbutazone ([2]; 8 hours after eating): 12.14
blood plasma concentration of phenylbutazone ([2]; 10 hours after eating): 9.9
blood plasma concentration of phenylbutazone ([2]; 12 hours after eating): 7.3
blood plasma concentration of phenylbutazone ([2]; 18 hours after eating): 4.18
SMILES: CCCCC1C(=O)N(c2ccccc2)N(c2ccccc2)C1=O [Pure Phenylbutazone, 4-butyl-diphenyl-3,5-pyrazoidinedione]
time required to achieve an effective concentration level [1]: 3 to 5 h

— patent publication US8524759B2, “Phenylbutazone carrier formulation showing increased bioactivity in animals” (priority 2009, dated 2013)
